Where two headings read alike, the source gives them in different places.
Columns and labels:
[1] = Human Study 1: absolute bioavailability, plasma pharmacokinetics of fospropofol and propofol; assay type: in vivo; settings: for Tmax / bioavailability / half-life: male, human, plasma; for half-life: read-out: mean t1/2 of fospropofol (converted)
Protocol: (§1) In human study 1, fospropofol disodium was formulated as a sterile aqueous solution at a concentration of 20 mg/mL. Each vial provided contained 20 mL of solution, suitable for intravenous injection. Fospropofol was administered as a single dose of 400 mg orally, directly into the duodenum by gastroscopy or intravenously over 10 min. In human study 2, fospropofol disodium in capsules (200 mg) or matching placebo was administered orally.
The first study was an absolute bioavailability study of fospropofol conducted at a single center (PRA Health Sciences) in Groningen, Netherlands, as a three-way crossover study. The study enrolled 7 healthy male volunteers between 18 and 45 years of age inclusive, with a body mass index between 18 and 28 kg/m^2. Subjects stayed in the clinical unit for three consecutive periods of 3 days each, with a 3-day washout, between periods. For six subjects, the order of the administration routes was as follows—period 1: PO, period 2: ID, and period 3: IV. For one subject the order of the administration routes was the following—period 1: ID, period 2: IV and period 3: PO. In this study a single dose of 400 mg was administered by each route. Blinding and placebo control was impractical due to the requirement of unsedated endoscopic administration of fospropofol into the duodenum. Safety and overall pharmacodynamic effect was evaluated based on adverse events, vital signs, electrocardiogram (ECG), Modified Observer's Assessment of Alertness/Sedation (OAA/S) score, clinical laboratory tests, and physical examination.
In the first study, 6 mL blood samples were collected following the PO and ID fospropofol treatment periods at times of pre-dose, 5, 10, 20, 30, 45, 60, 90 min and 2, 4, 6 and 9 h post-dose and in the IV fospropofol treatment period at pre-dose and at 5, 10, 15, 20, 30, 45, 60 and 120 min post-dose. In the second study a 6 mL blood sample was collected following each fospropofol PO dose (200, 600, 1,000 and 1,200 mg) at pre-dose, 5, 10, 20, 30, 45, 60, 90 min and 2, 4, 6 and 9 h post-dose. The blood was collected in a sodium heparin vacutainer tube containing 60 mg SOV, inverted approximately eight times to dissolve SOV and placed on dry ice until it was centrifuged at 3,000 rpm for 10 min at 4° C. to harvest plasma. Plasma samples were then stored at −20° C. until analysis.
The parameters were summarized using descriptive statistics.

[2] = Human Study 2: single ascending oral dose, plasma pharmacokinetics; assay type: in vivo
Protocol: as §1
A second single ascending dose study was subsequently performed to assess the safety, tolerability, and pharmacokinetics of oral administration of fospropofol as a capsule. This was a double-blind, randomized, crossover, placebo-controlled, single ascending dose study. Ten healthy volunteers were enrolled, 6 males and 4 females between 18 and 45 years of age inclusive with a body mass index between 18 and 28 kg/m^2. Each subject received four ascending oral doses of fospropofol disodium (200, 600, 1,000 and 1,200 mg) and one of placebo. Placebo was administered randomly, in one of the five periods. Subjects stayed in the clinical research unit over 3 days per treatment for five consecutive treatments. […] Pharmacokinetic parameters, safety and pharmacodynamic effect were assessed in a manner similar to that in Study 1 described above. […]

[3] = Stability in rat plasma at −20° C.; assay type: in vitro ADME
Protocol: (§2) The SPE cartridges were conditioned by gravity with methanol and 1.0 M ammonium acetate solution in water. The plasma samples with internal standard were loaded on the cartridges, washed with water and 10% methanol/water and eluted with methanol. The tubes were then evaporated under nitrogen and the residues reconstituted with 50/50 methanol/25 mM ammonium acetate in deionized water. The sample extract was then injected onto a reversed phase HPLC Zorbax Eclipse XDB-C18 column. The separated analytes were detected using tandem mass spectrometry (MS/MS) detection. […] The assays were linear with correlation coefficient of (R^2)>0.99 over the range of 10-2,000 ng/mL for rat plasma and 5-1,000 ng/mL for human plasma.
(§3) In brief, 4-[tert-octyl] phenol, (internal standard) was added to the plasma samples (0.05 mL for rat or 0.2 mL for human) and extracted using a 3M Empore C-18-SD 4 mm SPE cartridge (Millipore, Billerica, Mass., USA). […] The final eluants (˜0.3 mL) were diluted with 0.3 mL of water, and injected onto an HPLC system equipped with a C-18 analytical column (5 μm, 150×3.9 mm) and fluorescence detector set at excitation and emission wave lengths of 275 and 310 nm, respectively. […] All rat and human study samples in this study were analyzed without exceeding the stability sample integrity during validation of the methods.

[4] = assay type: in vitro ADME
Protocol: as §2, §3

[5] = Intranasal delivery of fospropofol in monkeys: plasma and CSF levels; assay type: in vivo, monkey
Protocol: More particularly, in this example, monkeys were dosed with 50 mg fospropofol by intranasal administration. Plasma and cerebrospinal fluid (CSF) were collected before treatment (graphed as t=0), 15 minutes, 30 minutes, 1 hr, and 2 hr. Samples were analyzed for propofol and fospropofol by LC/MS. […] These samples are near the limit of quantification. FIGS. 11A and 11B show the data in nM and ng/mL scales, respectively.

CC(C)c1cccc(C(C)C)c1OCOP(=O)(O)O [fospropofol]
fospropofol Cmax, fold lower than IV ([1]; 400 mg ID vs IV): ~534 fold | plasma fospropofol by non-intravenous routes ([1]; 400 mg PO or ID): Almost no plasma fospropofol was detected | fospropofol Cmax, fold lower than IV ([1]; 400 mg PO vs IV): approximately 88 fold | Tmax ([1]; other: intraduodenal, 400 mg ID, read-out: Tmax of fospropofol): 10.2 min | bioavailability ([1]; other: intraduodenal, 400 mg ID, read-out: absolute bioavailability of fospropofol): 0.1% | half-life ([1]; other: intraduodenal, 400 mg ID): 16.8 min | half-life ([1]; 400 mg IV): 16.8 min | Tmax ([1]; 400 mg PO, read-out: Tmax of fospropofol): 4.8 min | bioavailability ([1]; 400 mg PO, read-out: absolute bioavailability of fospropofol): 1% | half-life ([1]; 400 mg PO): 19.2 min | fospropofol exposure vs dose ([2]; PO capsules 200-1,200 mg): dose related increase | time stable at −20° C. in rat plasma [3]: 98 days | time stable at −20° C. in human plasma [4]: 464 days | fospropofol (prodrug) in plasma after intranasal administration ([5]; 50 mg intranasal): appreciable plasma concentrations of prodrug | fospropofol in CSF samples ([5]; 50 mg intranasal, only two samples): low nanomolar range

CC(C)c1cccc(C(C)C)c1O [propofol, 2,6-diisopropylphenol]
bioavailability (F) of propofol based on AUC(0-∞) ([1]; fospropofol 400 mg ID): 37% | bioavailability (F) of propofol based on AUC(0-∞) ([1]; fospropofol 400 mg oral): 30% | Tmax ([1]; other: intraduodenal, fospropofol 400 mg ID): 10.2 min | bioavailability ([1]; po, 400 mg, summary in discussion): ≥ 30% | Tmax ([1]; fospropofol 400 mg PO): 19.8 min | propofol exposure vs dose ([2]; PO fospropofol capsules 200-1,200 mg): dose related increase | time stable at −20° C. in rat plasma [3]: 65 days | time stable at −20° C. in human plasma [4]: 347 days | propofol in plasma samples ([5]; 50 mg fospropofol intranasal, up to 2 hr): not quantifiable
